Experimental findings from patent US11077090B2, “Compounds and compositions and uses thereof” (Sunovion Pharmaceuticals Inc., priority 2016, dated 2021) are described below.

The structures appear in SMILES notation.

What is called minimal effective dose is the lowest level tested that produced the effect sought.

The subject of the first assay is compound-treated mice. The assay is described as follows: Neuropharmacological assay (SmartCube): behavioral activity signature and minimal effective dose. It counts as in vivo. Conditions: Mus musculus, ip, MED = dose having 50% or more total activity, read-out: Potency: minimal effective dose (MED). The procedure, abridged: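 Mice dosed i.p. 15 min before test, compound in N-methyl-2-pyrrolidone/PEG/propylene glycol, 3 doses; video-captured behavior matched to reference-drug signatures, giving per-class probabilities at most efficacious dose. MED from doses typically 0.3–30 mpk, defined as lowest dose with ≥50% total activity.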
As to `Cl.NC1COCc2ccc3ncccc3c21` (stereo not drawn) [Example 15], the minimal effective dose was more than 30 mg/kg.

With `Cc1nc2c3c(ccc2s1)COCC3N.Cl` (stereo not drawn) [Example 16], the minimal effective dose is 10 to 30 mg/kg.

As to `CCc1cccc2c1COCC2N.Cl` (stereo not drawn) [Example 17, 8-Ethylisochroman-4-amine hydrochloride], the minimal effective dose was 10 to 30 mg/kg.

As for `CC(C)c1cccc2c1COCC2N.Cl` (stereo not drawn) [Example 18, 8-Isopropylisochroman-4-amine hydrochloride], the minimal effective dose lay within 10 to 30 mg/kg.

On to `Cl.NC1COCc2ccc3c(c21)CCCC3` (stereo not drawn) [Example 19, 2,4,7,8,9,10-Hexahydro-1H-benzo[f]isochromen-1-amine hydrochloride], for which the minimal effective dose fell in the range of 10 to 30 mg/kg.

As for `CCc1ccc2c(c1)C(N)COC2.Cl` (stereo not drawn) [Example 20, 6-Ethylisochroman-4-amine hydrochloride], the minimal effective dose lay within 3 to 10 mg/kg.

For the compound `Cc1cccc2c1C(N)COC2.Cl` (stereo not drawn) [Example 21, 5-Methylisochroman-4-amine hydrochloride], the minimal effective dose is 3 to 10 mg/kg.

In the case of `Cl.NC1COCc2cccc(F)c21` (stereo not drawn) [Example 22], the minimal effective dose fell in the range of 10 to 30 mg/kg.

Consider `Cl.NC1COCc2c(F)cccc21` (stereo not drawn) [Example 23], for which the minimal effective dose fell in the range of 10 to 30 mg/kg.

Take `COc1cccc2c1COCC2N.Cl` (stereo not drawn) [Example 24]: the minimal effective dose was 10 to 30 mg/kg.

For the compound `COc1cccc2c1C(N)COC2.Cl` (stereo not drawn) [Example 25], the minimal effective dose lay within 10 to 30 mg/kg.

Turning to `Cc1ccc2c(c1)C(N)COC2.Cl` (stereo not drawn) [Example 26], the minimal effective dose was less than 3 mg/kg.

Staying with this assay, now noted: i.p. 15 min before test, most efficacious dose(s).
In the case of `Cl.NC1COCc2ccc3ncccc3c21` (stereo not drawn) [Example 15], the “AD: ADHD (probability of activity signature)” value (“AD: ADHD” below) was “+ (LOQ ≤ + <5%)”, the “AG: analgesic (probability of activity signature)” value (shortened to “AG: analgesic”) is reported as “+ (LOQ ≤ + <5%)”, the “AX: anxiolytic (probability of activity signature)” value (from here on “AX: anxiolytic”) is listed as “+ (LOQ ≤ + <5%)” and the “CE: cognitive enhancer (probability of activity signature)” value (from here on “CE: cognitive enhancer”) is given as “+ (LOQ ≤ + <5%)”. Moreover, the “DP: anti-depressant (probability of activity signature)” value (from here on “DP: anti-depressant”) was “+ (LOQ ≤ + <5%)”, the “MS: mood stabilizer (probability of activity signature)” value (shortened to “MS: mood stabilizer”) is recorded as “+ (LOQ ≤ + <5%)”, the “PS: anti-psychotic (probability of activity signature)” value (“PS: anti-psychotic” below) was “+ (LOQ ≤ + <5%)” and the “SD: sedative hypnotic (probability of activity signature)” value (“SD: sedative hypnotic” for short) is “+ (LOQ ≤ + <5%)”. Further, the “UN: uncharacterized CNS activity (probability of activity signature)” value (“UN: uncharacterized CNS activity” for short) was “+ (LOQ ≤ + <5%)”.

As for `Cc1nc2c3c(ccc2s1)COCC3N.Cl` (stereo not drawn) [Example 16], the “AD: ADHD” value is “+ (LOQ ≤ + <5%)”, the “AG: analgesic” value is on record as “++ (5% ≤ ++ <25%)”, the “AX: anxiolytic” value is on record as “+++ (25% ≤ +++ <50%)” and the “CE: cognitive enhancer” value is recorded as “++ (5% ≤ ++ <25%)”. Further, the “DP: anti-depressant” value is listed as “+ (LOQ ≤ + <5%)”, the “MS: mood stabilizer” value is reported as “+ (LOQ ≤ + <5%)”, the “PS: anti-psychotic” value is “++ (5% ≤ ++ <25%)” and the “SD: sedative hypnotic” value is recorded as “+ (LOQ ≤ + <5%)”. Also, the “UN: uncharacterized CNS activity” value is recorded as “+++ (25% ≤ +++ <50%)”.

For the compound `CCc1cccc2c1COCC2N.Cl` (stereo not drawn) [Example 17, 8-Ethylisochroman-4-amine hydrochloride], the “AD: ADHD” value was “+ (LOQ ≤ + <5%)”, the “AG: analgesic” value is “++ (5% ≤ ++ <25%)”, the “AX: anxiolytic” value is recorded as “+++ (25% ≤ +++ <50%)” and the “CE: cognitive enhancer” value is given as “++ (5% ≤ ++ <25%)”. In addition, the “DP: anti-depressant” value was “++ (5% ≤ ++ <25%)”, the “MS: mood stabilizer” value is recorded as “+ (LOQ ≤ + <5%)”, the “PS: anti-psychotic” value is listed as “++ (5% ≤ ++ <25%)” and the “SD: sedative hypnotic” value is reported as “+ (LOQ ≤ + <5%)”. For the same compound, the “UN: uncharacterized CNS activity” value is recorded as “+++ (25% ≤ +++ <50%)”.

On to `CC(C)c1cccc2c1COCC2N.Cl` (stereo not drawn) [Example 18, 8-Isopropylisochroman-4-amine hydrochloride], for which the “AD: ADHD” value is recorded as “+ (LOQ ≤ + <5%)”, the “AG: analgesic” value is “+++ (25% ≤ +++ <50%)”, the “AX: anxiolytic” value is listed as “++ (5% ≤ ++ <25%)” and the “CE: cognitive enhancer” value is listed as “++ (5% ≤ ++ <25%)”. For the same compound, the “DP: anti-depressant” value is listed as “++ (5% ≤ ++ <25%)”, the “MS: mood stabilizer” value was “+ (LOQ ≤ + <5%)”, the “PS: anti-psychotic” value is on record as “++ (5% ≤ ++ <25%)” and the “SD: sedative hypnotic” value is “++ (5% ≤ ++ <25%)”. The “UN: uncharacterized CNS activity” value is given as “+ (LOQ ≤ + <5%)”.

Take `Cl.NC1COCc2ccc3c(c21)CCCC3` (stereo not drawn) [Example 19, 2,4,7,8,9,10-Hexahydro-1H-benzo[f]isochromen-1-amine hydrochloride]: the “AD: ADHD” value is “+ (LOQ ≤ + <5%)”, the “AG: analgesic” value is listed as “++ (5% ≤ ++ <25%)”, the “AX: anxiolytic” value is given as “+++ (25% ≤ +++ <50%)” and the “CE: cognitive enhancer” value is “++ (5% ≤ ++ <25%)”. Moreover, the “DP: anti-depressant” value is listed as “+ (LOQ ≤ + <5%)”, the “MS: mood stabilizer” value is “+ (LOQ ≤ + <5%)”, the “PS: anti-psychotic” value was “++ (5% ≤ ++ <25%)” and the “SD: sedative hypnotic” value is given as “++ (5% ≤ ++ <25%)”. For the same compound, the “UN: uncharacterized CNS activity” value is reported as “+++ (25% ≤ +++ <50%)”.

For the compound `CCc1ccc2c(c1)C(N)COC2.Cl` (stereo not drawn) [Example 20, 6-Ethylisochroman-4-amine hydrochloride], the “AD: ADHD” value is listed as “+ (LOQ ≤ + <5%)”, the “AG: analgesic” value was “++ (5% ≤ ++ <25%)”, the “AX: anxiolytic” value was “+++ (25% ≤ +++ <50%)” and the “CE: cognitive enhancer” value was “++ (5% ≤ ++ <25%)”. For the same compound, the “DP: anti-depressant” value is “++ (5% ≤ ++ <25%)”, the “MS: mood stabilizer” value was “+ (LOQ ≤ + <5%)”, the “PS: anti-psychotic” value is listed as “+++ (25% ≤ +++ <50%)” and the “SD: sedative hypnotic” value is on record as “++ (5% ≤ ++ <25%)”. Moreover, the “UN: uncharacterized CNS activity” value was “++ (5% ≤ ++ <25%)”.

`Cc1cccc2c1C(N)COC2.Cl` (stereo not drawn) [Example 21, 5-Methylisochroman-4-amine hydrochloride]: the “AD: ADHD” value is reported as “+ (LOQ ≤ + <5%)”, the “AG: analgesic” value is “++ (5% ≤ ++ <25%)”, the “AX: anxiolytic” value is “++ (5% ≤ ++ <25%)” and the “CE: cognitive enhancer” value is listed as “++ (5% ≤ ++ <25%)”. The “DP: anti-depressant” value was “++ (5% ≤ ++ <25%)”, the “MS: mood stabilizer” value is reported as “+ (LOQ ≤ + <5%)”, the “PS: anti-psychotic” value is “++ (5% ≤ ++ <25%)” and the “SD: sedative hypnotic” value is given as “++ (5% ≤ ++ <25%)”. Besides, the “UN: uncharacterized CNS activity” value is “+++ (25% ≤ +++ <50%)”.

For `Cl.NC1COCc2cccc(F)c21` (stereo not drawn) [Example 22], the “AD: ADHD” value is “+ (LOQ ≤ + <5%)”, the “AG: analgesic” value was “++ (5% ≤ ++ <25%)”, the “AX: anxiolytic” value is listed as “++ (5% ≤ ++ <25%)” and the “CE: cognitive enhancer” value was “++ (5% ≤ ++ <25%)”. Also, the “DP: anti-depressant” value is reported as “++ (5% ≤ ++ <25%)”, the “MS: mood stabilizer” value is reported as “+ (LOQ ≤ + <5%)”, the “PS: anti-psychotic” value is “++ (5% ≤ ++ <25%)” and the “SD: sedative hypnotic” value is “+ (LOQ ≤ + <5%)”. In addition, the “UN: uncharacterized CNS activity” value is recorded as “+++ (25% ≤ +++ <50%)”.

`Cl.NC1COCc2c(F)cccc21` (stereo not drawn) [Example 23]: the “AD: ADHD” value was “+ (LOQ ≤ + <5%)”, the “AG: analgesic” value was “++ (5% ≤ ++ <25%)”, the “AX: anxiolytic” value was “+++ (25% ≤ +++ <50%)” and the “CE: cognitive enhancer” value is recorded as “++ (5% ≤ ++ <25%)”. For the same compound, the “DP: anti-depressant” value is “++ (5% ≤ ++ <25%)”, the “MS: mood stabilizer” value is recorded as “+ (LOQ ≤ + <5%)”, the “PS: anti-psychotic” value was “++ (5% ≤ ++ <25%)” and the “SD: sedative hypnotic” value is given as “+ (LOQ ≤ + <5%)”. The “UN: uncharacterized CNS activity” value is “++ (5% ≤ ++ <25%)”.

As to `COc1cccc2c1COCC2N.Cl` (stereo not drawn) [Example 24], the “AD: ADHD” value is “+ (LOQ ≤ + <5%)”, the “AG: analgesic” value is on record as “+ (LOQ ≤ + <5%)”, the “AX: anxiolytic” value was “++ (5% ≤ ++ <25%)” and the “CE: cognitive enhancer” value is given as “+ (LOQ ≤ + <5%)”. Further, the “DP: anti-depressant” value is “++ (5% ≤ ++ <25%)”, the “MS: mood stabilizer” value is recorded as “+ (LOQ ≤ + <5%)”, the “PS: anti-psychotic” value is listed as “++ (5% ≤ ++ <25%)” and the “SD: sedative hypnotic” value is listed as “++ (5% ≤ ++ <25%)”. Besides, the “UN: uncharacterized CNS activity” value is “+ (LOQ ≤ + <5%)”.

As for `COc1cccc2c1C(N)COC2.Cl` (stereo not drawn) [Example 25], the “AD: ADHD” value is given as “+ (LOQ ≤ + <5%)”, the “AG: analgesic” value is reported as “++ (5% ≤ ++ <25%)”, the “AX: anxiolytic” value is reported as “++ (5% ≤ ++ <25%)” and the “CE: cognitive enhancer” value is recorded as “++ (5% ≤ ++ <25%)”. Also, the “DP: anti-depressant” value is reported as “++ (5% ≤ ++ <25%)”, the “MS: mood stabilizer” value is “+ (LOQ ≤ + <5%)”, the “PS: anti-psychotic” value is given as “++ (5% ≤ ++ <25%)” and the “SD: sedative hypnotic” value is recorded as “+ (LOQ ≤ + <5%)”. Moreover, the “UN: uncharacterized CNS activity” value is on record as “+++ (25% ≤ +++ <50%)”.

For the compound `Cc1ccc2c(c1)C(N)COC2.Cl` (stereo not drawn) [Example 26], the “AD: ADHD” value is given as “+ (LOQ ≤ + <5%)”, the “AG: analgesic” value is given as “++ (5% ≤ ++ <25%)”, the “AX: anxiolytic” value is “++ (5% ≤ ++ <25%)” and the “CE: cognitive enhancer” value is “++ (5% ≤ ++ <25%)”. The “DP: anti-depressant” value is recorded as “++ (5% ≤ ++ <25%)”, the “MS: mood stabilizer” value is reported as “+ (LOQ ≤ + <5%)”, the “PS: anti-psychotic” value is given as “++ (5% ≤ ++ <25%)” and the “SD: sedative hypnotic” value was “+ (LOQ ≤ + <5%)”. Further, the “UN: uncharacterized CNS activity” value is on record as “++++ (50% ≤ ++++)”.
